Earlier results, collected in patent US20070014831A1, “Biodegradable occlusive device with moisture memory” (priority 2005, published 2007).

Experiments:
[1] = in vivo
[2] = test system: tissue culture
[3] = J Biomater Sci Polymer Edn 1999;10:63-78

SMILES	glutaraldehyde concentration used to crosslink materials above which a persistent foreign-body reaction occurred [1]	concentration at which cytotoxic [2]	concentration at which cytotoxic in tissue culture ([2]; in tissue culture, as low as) [ppm]	cytotoxicity compared with glutaraldehyde [3]
O=CCCCC=O [glutaraldehyde]	above 0.05%	10-25 ppm	≥ 3	
COC(=O)C1=CO[C@@H](O)[C@@H]2C(CO)=CC[C@H]12 [Genipin]				significantly less cytotoxic than glutaraldehyde
